Experiments:
[1] = background statement; cited from earlier work
[2] = solubility of the crystal forms of reduced coenzyme Q10; assay type: physicochemical; conditions: compared to Form I crystal

SMILES	oral absorbability compared to oxidized coenzyme Q10 [1]	solubility compared with conventional reduced coenzyme Q10 crystals (Form I) [2]
COc1c(O)c(C)c(C/C=C(\C)CC/C=C(\C)CC/C=C(\C)CC/C=C(\C)CC/C=C(\C)CC/C=C(\C)CC/C=C(\C)CC/C=C(\C)CC/C=C(\C)CCC=C(C)C)c(O)c1OC [reduced coenzyme Q10]	high oral absorbability	–
COc1c(O)c(C)c(C/C=C(\C)CC/C=C(\C)CC/C=C(\C)CC/C=C(\C)CC/C=C(\C)CC/C=C(\C)CC/C=C(\C)CC/C=C(\C)CC/C=C(\C)CCC=C(C)C)c(O)c1OC [Form II, reduced coenzyme Q10]	–	lower solubility

— patent US9440901B2, “Method for producing reduced coenzyme Q10” (KANEKA CORPORATION, priority 2012, dated 2016)
